Measured values published in patent publication US20260224548A1 (priority 2022, published 2026).
Where two headings read alike, the source gives them in different places.

What was measured:
MsEH = target: T1, MsEH (Mus musculus, UniProt P34914); test: sEH inhibitory activity, PHOME fluorescence assay (MsEH); assay type: biochemical
T1 sequence (P34914 1-554): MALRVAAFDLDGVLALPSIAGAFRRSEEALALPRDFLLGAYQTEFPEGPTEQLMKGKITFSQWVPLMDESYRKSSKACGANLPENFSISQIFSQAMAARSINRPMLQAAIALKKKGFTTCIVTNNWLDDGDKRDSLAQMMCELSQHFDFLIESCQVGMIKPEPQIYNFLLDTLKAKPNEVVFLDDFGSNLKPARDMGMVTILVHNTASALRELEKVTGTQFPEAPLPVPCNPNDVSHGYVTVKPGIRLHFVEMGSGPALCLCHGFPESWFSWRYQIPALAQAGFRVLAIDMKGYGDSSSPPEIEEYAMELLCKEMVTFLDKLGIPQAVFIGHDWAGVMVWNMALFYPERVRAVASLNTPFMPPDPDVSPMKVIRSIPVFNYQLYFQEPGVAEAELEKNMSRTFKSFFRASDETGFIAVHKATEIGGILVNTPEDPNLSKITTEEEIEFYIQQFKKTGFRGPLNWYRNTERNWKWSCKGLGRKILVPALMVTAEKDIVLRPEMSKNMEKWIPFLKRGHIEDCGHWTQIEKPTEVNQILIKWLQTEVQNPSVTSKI
From the text: (§1) Detection principle: a specific substrate, (3-phenyl-oxy)-acetic acid cyano-(6-methoxy-naphthalen-2-yl)methyl ester, namely PHOME, is non-fluorescent but can be hydrolyzed under the action of sEH enzyme to generate a product 6-methoxy-2-naphthaldehyde. The 6-methoxy-2-naphthaldehyde can emit fluorescence with a wavelength of 465 nm under 330 nm light wave excitation, and an intensity of the detected fluorescence signal is inversely proportional to an inhibitory effect on the sEH enzyme. Based on the above principle, the inhibition rates of samples with different concentrations were calculated compared with the positive control group. The IC50 value of the compound was calculated based on the inhibition rate and concentration using SPSS 20 software.
(§2) 25 mM Tris-HCl buffer (pH=7.4, containing 0.1 mg/mL BSA): […] BAS was added to 12.5 mL of 1 M Tris-HCl buffer, followed by diluting with purified water, and a resulting mixture was adjusted to a pH value of 7.4 with hydrochloric acid, and diluted to 500 mL.
(§3) PHOME solution: 0.79 mg PHOME was dissolved in 106 μL DMSO to obtain a 20 mM PHOME solution, which was diluted to ⅓ mM with Tris-HCl buffer before use.
(§4) sEH solution: sEH (5 mg/mL) stock solution was stored in a refrigerator at −80° C. and diluted to 4 μg/mL with 25 mM Tris-HCl buffer before use.
(§5) A sample powder to be tested was dissolved in DMSO to a 20 mM solution, stored in a refrigerator at −20° C. for later use, and diluted with Tris-HCl buffer to corresponding concentrations when used.
(§6) Experimental design: solvent group, 100% activity group (A), inhibitor group (B), positive control group (C), as shown in Table 1.
(§7) Three replicate wells were set for each sample, and the average value of the three replicate wells was the fluorescence value (F) of the compound to be tested. […] The IC50 value of the compound was calculated based on the inhibition rate and concentration using SPSS 20 software.

HsEH = target: T2, HsEH (Homo sapiens, UniProt P34913); test: biochemical; assay type: biochemical
T2 sequence (P34913 1-555): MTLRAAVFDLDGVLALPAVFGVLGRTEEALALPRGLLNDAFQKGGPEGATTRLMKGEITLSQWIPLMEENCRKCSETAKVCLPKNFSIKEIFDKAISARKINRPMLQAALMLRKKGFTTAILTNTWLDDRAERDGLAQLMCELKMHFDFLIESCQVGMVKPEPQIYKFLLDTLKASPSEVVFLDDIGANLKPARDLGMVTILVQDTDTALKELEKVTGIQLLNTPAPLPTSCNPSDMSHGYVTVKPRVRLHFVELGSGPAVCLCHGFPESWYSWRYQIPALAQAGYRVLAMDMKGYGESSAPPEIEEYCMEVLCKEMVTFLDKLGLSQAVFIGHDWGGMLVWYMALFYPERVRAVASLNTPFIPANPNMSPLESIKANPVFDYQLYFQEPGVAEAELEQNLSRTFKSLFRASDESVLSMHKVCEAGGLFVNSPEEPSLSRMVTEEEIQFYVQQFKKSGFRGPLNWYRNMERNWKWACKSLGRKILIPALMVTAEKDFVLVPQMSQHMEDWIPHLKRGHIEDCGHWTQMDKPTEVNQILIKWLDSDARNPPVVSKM
From the text: as §1, §2, §3, §4, §5, §6, §7

[1] = PHOME substrate 50 μM, sEH 400 ng/ml, 37° C., 10 min, fluorescence 330/465 nm, read-out: HsEH IC50 (nM) Inhibitory activity against HsEH
[2] = PHOME substrate 50 μM, sEH 400 ng/ml, 37° C., 10 min, fluorescence 330/465 nm, read-out: MsEH IC50 (nM) Inhibitory activity against MsEH

## CCN(CC)CCN1CCC(CC(=O)N2CCCN(Cc3ccc(NC(=O)NC45CC6CC(C)(CC(C)(C6)C4)C5)c(F)c3)CC2)CC1 [GL-24, 1-(4-((4-(2-(1-(2-(diethylamino)ethyl)piperidin-4-yl)acetyl)-1,4-diaza-1-yl)methyl)-2-fluorophenyl)-3-((1r,3R,5S,7r)-3,5-dimethyladamantan-1-yl) urea]
MsEH
  IC50: 1.37 nM
HsEH; [1]
  IC50: 2.1 nM

## CC(=O)N1CCCN(C(=O)[C@H]2CCCN(C(=O)c3ccc(NC(=O)NC45CC6CC(C)(CC(C)(C6)C4)C5)c(F)c3)C2)CC1 [GL-101, 1-(4-((S)-3-(4-acetyl-1,4-diaza-1-carbonyl)piperidine-1-carbonyl)-2-fluorophenyl)-3-((1r,3R,5S,7S)-3,5-dimethyladamantan-1-yl) urea]
MsEH
  IC50: 0.26 nM
HsEH
  IC50: 0.6 nM

## CCC(=O)N1CCCN(C(=O)[C@H]2CCCN(C(=O)c3ccc(NC(=O)NC45CC6CC(C)(CC(C)(C6)C4)C5)c(F)c3)C2)CC1 [GL-102, 1-((1r,3R,5S,7S)-3,5-dimethyladamantan-1-yl)-3-(2-fluoro-4-((S)-3-(4-propionyl-1,4-diaza-1-carbonyl)piperidine-1-carbonyl)phenyl) urea]
MsEH
  IC50: 0.58 nM
HsEH; [1]
  IC50: 0.56 nM

## CCC(C)C(=O)N1CCCN(C(=O)[C@H]2CCCN(C(=O)c3ccc(NC(=O)NC45CC6CC(C)(CC(C)(C6)C4)C5)c(F)c3)C2)CC1 (stereo partly drawn) [GL-104, 1-((1r,3R,5S,7S)-3,5-dimethyladamantan-1-yl)-3-(2-fluoro-4-((3S)-3-(4-(2-methylbutanoyl)-1,4-diaza-1-carbonyl)piperidine-1-carbonyl)phenyl) urea]
MsEH
  IC50: 0.9 nM
HsEH; [1]
  IC50: 1.4 nM

## CC12CC3CC(C)(C1)CC(NC(=O)Nc1ccc(C(=O)N[C@H]4CC[C@H](C(=O)NCCO)CC4)cc1F)(C3)C2 [ZT-110, 4-(3-((1r,3R,5S,7r)-3,5-dimethyladamantan-1-yl)ureido)-3-fluoro-N-((1r,4R)-4-((2-hydroxyethyl)carbamoyl)cyclohexyl)benzamide]
MsEH
  IC50: 0.18 nM
HsEH
  IC50: 0.8 nM

## CC(O)CNC(=O)[C@H]1CC[C@H](NC(=O)c2ccc(NC(=O)NC34CC5CC(C)(CC(C)(C5)C3)C4)c(F)c2)CC1 (stereo partly drawn) [ZT-111, 4-(3-((1r,3R,5S,7r)-3,5-dimethyladamantan-1-yl)ureido)-3-fluoro-N-((1r,4R)-4-((2-hydroxypropyl)carbamoyl)cyclohexyl)benzamide]
MsEH
  IC50: 0.44 nM
HsEH; [1]
  IC50: 1.54 nM

## CC12CC3CC(C)(C1)CC(NC(=O)Nc1ccc(C(=O)N[C@H]4CC[C@H](C(=O)N(CCO)CCO)CC4)cc1F)(C3)C2 [ZT-112, N-((1r,4R)-4-(bis(2-hydroxyethyl)carbamoyl)cyclohexyl)-4-(3-((1r,3R,5S,7r)-3,5-dimethyladamantan-1-yl)ureido)-3-fluorobenzamide]
MsEH
  IC50: 0.23 nM
HsEH; [1]
  IC50: 2.94 nM

## CC12CC3CC(C)(C1)CC(NC(=O)Nc1ccc(C(=O)N[C@H]4CC[C@H](C(N)=O)CC4)cc1F)(C3)C2 [ZT-113, N-((1r,4R)-4-carbamoylcyclohexyl)-4-(3-((1r,3R,5S,7r)-3,5-dimethyladamantan-1-yl)ureido)-3-fluorobenzamide]
MsEH
  IC50: 0.35 nM
HsEH; [1]
  IC50: 0.84 nM

## C[C@]12CC3CC(NC(=O)Nc4ccc(C(=O)NC5CCC(C(=O)NC(CO)CO)CC5)cc4F)(C1)C[C@@](C)(C3)C2 (stereo partly drawn) [ZT-114, N-((1r,4R)-4-((1,3-dihydroxypropan-2-yl)carbamoyl)cyclohexyl)-4-(3-((1r,3R,5S,7r)-3,5-dimethyladamantan-1-yl)ureido)-3-fluorobenzamide]
MsEH; [2]
  IC50: 0.55 nM
HsEH; [1]
  IC50: 0.91 nM

## CC12CC3CC(C)(C1)CC(NC(=O)Nc1ccc(C(=O)N[C@H]4CC[C@H](C(=O)NC(CO)(CO)CO)CC4)cc1F)(C3)C2 [ZT-115, N-((1r,4R)-4-((1,3-dihydroxy-2-(hydroxymethyl)propan-2-yl)carbamoyl)cyclohexyl)-4-(3-((1r,3R,5S,7r)-3,5-dimethyladamantan-1-yl)ureido)-3-fluorobenzamide]
MsEH
  IC50: 0.12 nM
HsEH; [1]
  IC50: 0.35 nM

## CC12CC3CC(C)(C1)CC(NC(=O)Nc1ccc(C(=O)N[C@H]4CC[C@H](C(=O)NCCN5CCN(C(=O)OC(C)(C)C)CC5)CC4)cc1F)(C3)C2 [ZT-116, tert-butyl 4-(2-((1R,4r)-4-(4-(3-((1r,3R,5S,7r)-3,5-dimethyladamantan-1-yl)ureido)-3-fluorobenzamido)cyclohexane-1-carboxamido)ethyl) piperazine-1-carboxylate]
MsEH
  IC50: 2 nM
HsEH; [1]
  IC50: 183 nM

## C[C@]12CC3CC(NC(=O)Nc4ccc(C(=O)NC5CCC(C(=O)N6CCN(CCO)CC6)CC5)cc4F)(C1)C[C@@](C)(C3)C2 (some centres unmarked) [ZT-117]
MsEH; [2]
  IC50: 0.53 nM
HsEH; [1]
  IC50: 16 nM

## methyl 4-(2-(4-(4-(3-((1r,3R,5S,7r)-3,5-dimethyladamantan-1-yl) ureido)-3-fluorobenzyl)-1,4-diaza-1-yl)-2-oxoethyl) piperidine-1-carboxylate [GL-4]
MsEH; [2]
  IC50: 0.41 nM
HsEH; [1]
  IC50: 1.1 nM
